Results taken from patent publication US20060062736A1, “Therapeutic foam” (priority 2003, published 2006).

Assay: In vitro absorption of foam/gas in fresh human venous blood
Assay type: in vitro ADME
Settings: 0.5 ml aliquot into 20 ml stirred blood
Method: In vitro experiments were conducted to determine the absorption of foam made with different gases in fresh human venous blood.
A 20 ml polypropylene syringe barrel was prepared by puncturing its side wall with a relatively large hypodermic needle to make a hole approximately 1 mm in diameter. This hole was then covered by securing a piece of clear flexible vinyl sheet over it with clear adhesive tape. A small magnetic stirrer element was introduced into the syringe barrel and the plunger then replaced. 20 ml of human venous blood was then with withdrawn in the usual manner from a human subject using the specially prepared syringe fitted with a hypodermic needle.
The hypodermic needle was removed and the syringe then placed on a magnetic stirrer unit so that the magnetic element in the syringe thoroughly agitated the blood. […]
The needle of the 0.5 ml syringe was then introduced through the vinyl sheet on the side wall of the 20 ml syringe. […] It was determined that a distance of 45 intervals on this scale corresponded to an internal volume of in the manometer tubing of approximately 0.5 ml. […]
In this experiment, the air foam test was only observed for a few minutes after tF. However, further experiments have been conducted by the inventors, the results of which are not formally recorded here, involving foam with a percentage of nitrogen. […]

Absorbed volume at tF 0.5(y − z)/(y − x): 0.46 mL | tF (time at which blood column stopped moving): 140 s
Compound: O=O [Oxygen gas, oxygen]
